Our source for the GI50 and TGI values is PubChem BioAssay (NCI).

Common to all, as to assay: inhibition of tumour cell growth, NCI panel, 48 h
In experiment [1] the test system is K-562 leukemia.
Experiment [2] deals with LOX IMVI melanoma.
The subject of experiment [3] is SW-620 colon.
Experiment [4] relates to ACHN renal.
In experiment [5] the test system is M14 melanoma.
In experiment [6] the test system is OVCAR-5 ovarian.
The test system of experiment [7] is SNB-19 CNS.
Experiment [8] relates to COLO 205 colon.
For experiment [9], the system named is MOLT-4 leukemia.
For experiment [10], the system named is SF-268 CNS.

Several values for one entry are separate records, joined by “and”; a condition that tells them apart may be missing. Equal entries are not always repeated.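 Grown in 96-well plates, cells were treated for 48 hours with each compound at five concentrations. Insufficient inhibition: endpoint recorded as highest concentration tested. The concentration for 50% growth inhibition is given as GI50. TGI: concentration producing complete growth inhibition.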

Regarding `Cc1cc(C(=O)NOCCO)c(Nc2ccc(I)cc2F)n(C)c1=O`, the GI50 in experiment [1] was 321 nM and 190 nM; in [3], 2.52 nM and < 10 nM; in [5], 1.59 nM and < 10 nM; in [6], 0.00163 µM and < 0.0168 µM; in experiment [7], 6.08 µM; in [8], less than 10 nM. Also, the GI50 in [9] is more than 100000 nM; in experiment [10], more than 100 µM. In addition, the TGI in [1] was more than 100 µM; in [2], more than 100 µM; in experiment [3], more than 100 µM; in experiment [4] it was more than 100 µM; in experiment [5] it was 2.89 µM; in experiment [6] it was more than 100 µM. The TGI in experiment [7], in experiment [8], in [9] and in experiment [10] was more than 100 µM throughout.

In the case of `OC(CBr)C(O)C(O)C(O)CBr` (stereo not given), the TGI in experiment [1], in experiment [2], in [3], in [4], in experiment [5] and in [6] was more than 100 µM each time. Also, the TGI is more than 100 µM in experiment [7], more than 100 µM in experiment [8], more than 30.4 µM in experiment [9] and more than 100 µM in experiment [10]. Also, the GI50 in [7] was 36 µM and > 100 µM; in experiment [9] it was 10800 nM; in [10] it was > 40.6 µM and 19.3 µM.

`CNC(=O)c1cc(Oc2ccc(NC(=O)Nc3ccc(Cl)c(C(F)(F)F)c3)cc2)ccn1`: the GI50 in experiment [1] is 1700 nM and 2500 nM and 2530 nM; in experiment [2], 2520 nM and 1500 nM and 1670 nM; in [3], 4260 nM and 3050 nM and 2870 nM; in experiment [4], 3.22 µM and 3.45 µM and 2.64 µM; in experiment [5], 2150 nM and 2110 nM and 2180 nM; in experiment [6] it was 3.54 µM and 4.39 µM and 3.11 µM. In addition, the GI50 in [7] is 4.75 µM and 4.38 µM and 3.47 µM; in experiment [8], 2570 nM and 2900 nM and 2330 nM; in [9], 2380 nM and 3150 nM and 2870 nM; in [10], 4.15 µM and 2.73 µM and 2.63 µM. Further, the TGI was more than 100 µM in experiment [1]; > 10 µM and 3.3 µM and 4.31 µM in experiment [2]; > 10 µM and 12 µM and 9.35 µM in [3]; > 10 µM and 12 µM and 12.1 µM in experiment [4]; 7.98 µM and 5.03 µM and 5.96 µM in [5]; > 10 µM and 19.9 µM and 15.7 µM in experiment [6]. Moreover, the TGI in experiment [7] was > 10 µM and 17.7 µM and 11.8 µM; in experiment [8], 8.46 µM and 7.66 µM and 6.26 µM; in experiment [10], > 10 µM and 10.8 µM and 7.88 µM.

Take `COC1C[C@H](O[C@@H]2C[C@H](O[C@@H]3C[C@H](O[C@@H]4C(=O)c5c(cc6cc(O[C@H]7C[C@@H](O[C@H]8C[C@@H](O)[C@H](O)C(C)O8)[C@H](O)C(C)O7)c(C)c(O)c6c5O)C[C@H]4C(OC)C(=O)[C@@H](O)[C@@H](C)O)OC(C)[C@H]3O)OC(C)[C@@H]2O)OC(C)[C@@H]1O` (stereo not given in full): the GI50 in experiment [1] is 119 nM; in [2] it was 54.5 nM; in experiment [3], 127 nM; in experiment [4] it was 0.252 µM; in experiment [5] it was 191 nM; in [6], 0.106 µM. The GI50 in experiment [7] was 0.101 µM; in experiment [8] it was 57.1 nM; in experiment [9], 111 nM; in experiment [10] it was 0.0864 µM. Moreover, the TGI is more than 32.5 µM in experiment [1]; 0.168 µM in [2]; more than 32.5 µM in [3]; 31.1 µM in experiment [4]; 2.15 µM in experiment [5]; more than 32.5 µM in experiment [6]. Further, the TGI was more than 32.5 µM in experiment [7], 0.147 µM in [8], more than 32.5 µM in experiment [9] and more than 32.5 µM in experiment [10].

For `CN(N=O)N1C(=O)SCC(c2ccccc2)(c2ccccc2)C1=O`, the TGI in experiment [1], in experiment [2], in [3], in [4], in experiment [5] and in experiment [6] was more than 100 µM each time. For the same compound, the TGI in [7], in experiment [8], in experiment [9] and in [10] was more than 100 µM each time.

`S=C1NC(c2ccccc2)NC(c2ccccc2)S1` (stereo not given): the TGI in experiment [1], in experiment [2], in experiment [3], in [4], in experiment [5] and in experiment [6] was more than 100 µM throughout. In addition, the TGI in [7], in experiment [8], in experiment [9] and in experiment [10] was more than 100 µM in each case.

In the case of `COc1ccc(C2CC(=O)Nc3c2c(C)nn3-c2nc3ccccc3[nH]2)cc1OC` (stereo not given), the GI50 in [1] is 4810 nM; in experiment [2], 4510 nM; in experiment [3], 4860 nM; in experiment [4], 4.45 µM; in experiment [5], 3450 nM; in [6] it was 25.4 µM. The GI50 in [7] was 8.64 µM; in experiment [8], 9360 nM; in experiment [9], 40.5 nM; in experiment [10], 5.07 µM. For the same compound, the TGI in experiment [1] was more than 100 µM; in experiment [2], 19.1 µM; in [3], 49.6 µM; in experiment [4] it was 34.1 µM; in experiment [5], 20.4 µM; in experiment [6], more than 77.2 µM. The TGI was more than 100 µM in experiment [7], 40.7 µM in [8], 0.27 µM in experiment [9] and more than 69.5 µM in [10].

For the compound `Nc1[nH]c(=S)[nH]c(=O)c1N=Nc1c(Br)cc(S(N)(=O)=O)cc1Br`, the TGI in experiment [1], in [2], in experiment [3], in experiment [4], in [5] and in experiment [6] was more than 100 µM in each case. Further, the TGI in experiment [7], in [8], in experiment [9] and in [10] was more than 100 µM throughout.

For `CCOC1=C2N=C(C(CC)c3ccc(F)cc3)N=C2C(=O)c2ccccc21` (stereo not given), the TGI was more than 100 µM in experiment [1]; 29.7 µM in [2]; more than 100 µM in experiment [3]; more than 81.6 µM in experiment [4]; more than 68.3 µM in [5]; more than 100 µM in [6]. In addition, the TGI in experiment [7] is more than 100 µM; in experiment [8], 47 µM; in experiment [9], more than 86.2 µM; in experiment [10] it was 99.4 µM.

For `CCC(/C(=N/NC(=O)C[N+](C)(C)C)c1ccccc1)C1OC(=O)c2ccccc21` (stereo not given), the TGI in experiment [1], in experiment [2], in [3], in [4], in experiment [5] and in experiment [6] was more than 100 µM each time. Moreover, the TGI in [7], in experiment [8], in experiment [9] and in experiment [10] was more than 100 µM each time.
